Data from the NIST ThermoML archive (doi:10.1016/j.jct.2007.07.005).
± gives the expanded uncertainty stated by the source.

Assay: xn = mol fraction of the nth substance listed
Details: Fluid (supercritical or subcritical phases), vibrating tube

CCCCCO [pentan-1-ol] + O=C=O
Details	mass density [kg/m3]
332.96 K, 13004 kPa, x2 = 0.0816	798.35 ± 0.44
332.96 K, 13052 kPa, x2 = 0.7274	804 ± 0.5
332.96 K, 14008 kPa, x2 = 0.7274	808.02 ± 0.46
332.96 K, 14029 kPa, x2 = 0.0816	799.18 ± 0.44
332.96 K, 14991 kPa, x2 = 0.0816	799.97 ± 0.44
332.96 K, 15033 kPa, x2 = 0.7274	812.1 ± 0.46
332.96 K, 16004 kPa, x2 = 0.0816	800.75 ± 0.44
332.96 K, 16033 kPa, x2 = 0.7274	815.82 ± 0.46
332.96 K, 17014 kPa, x2 = 0.0816	801.55 ± 0.45
332.96 K, 17034 kPa, x2 = 0.7274	819.37 ± 0.46
332.96 K, 17988 kPa, x2 = 0.7274	822.59 ± 0.46
332.96 K, 18018 kPa, x2 = 0.0816	802.33 ± 0.45
332.96 K, 19024 kPa, x2 = 0.0816	803.1 ± 0.45
332.96 K, 19059 kPa, x2 = 0.7274	826.03 ± 0.46
332.96 K, 19981 kPa, x2 = 0.0816	803.83 ± 0.45
332.96 K, 20008 kPa, x2 = 0.7274	828.96 ± 0.46
332.96 K, 20999 kPa, x2 = 0.7274	831.94 ± 0.46
332.96 K, 21024 kPa, x2 = 0.0816	804.62 ± 0.45
332.96 K, 22023 kPa, x2 = 0.7274	834.87 ± 0.46
332.96 K, 22057 kPa, x2 = 0.0816	805.42 ± 0.45
332.96 K, 23004 kPa, x2 = 0.7274	837.6 ± 0.46
332.96 K, 23012 kPa, x2 = 0.0816	806.12 ± 0.45
332.96 K, 23961 kPa, x2 = 0.7274	840.19 ± 0.46
332.96 K, 24007 kPa, x2 = 0.0816	806.87 ± 0.45
332.96 K, 25043 kPa, x2 = 0.0816	807.63 ± 0.45
333.01 K, 7029 kPa, x2 = 0.1347	794.28 ± 0.44
333.01 K, 8022 kPa, x2 = 0.1347	795.19 ± 0.44
333.01 K, 9011 kPa, x2 = 0.1347	796.07 ± 0.44
333.01 K, 10005 kPa, x2 = 0.1347	796.96 ± 0.44
333.01 K, 11019 kPa, x2 = 0.1347	797.85 ± 0.44
333.01 K, 11162 kPa, x2 = 0.6054	813.27 ± 0.45
333.01 K, 12017 kPa, x2 = 0.1347	798.71 ± 0.44
333.01 K, 12048 kPa, x2 = 0.6054	815.29 ± 0.46
333.01 K, 13025 kPa, x2 = 0.1347	799.58 ± 0.44
333.01 K, 13037 kPa, x2 = 0.6054	817.51 ± 0.45
333.01 K, 14019 kPa, x2 = 0.1347	800.43 ± 0.44
333.01 K, 14041 kPa, x2 = 0.6054	819.75 ± 0.45
333.01 K, 15000 kPa, x2 = 0.1347	801.26 ± 0.44
333.01 K, 15073 kPa, x2 = 0.6054	822.01 ± 0.45
333.01 K, 16013 kPa, x2 = 0.1347	802.1 ± 0.44
333.01 K, 16020 kPa, x2 = 0.6054	824.01 ± 0.45
333.01 K, 17014 kPa, x2 = 0.1347	802.91 ± 0.45
333.01 K, 17032 kPa, x2 = 0.6054	826.08 ± 0.45
333.01 K, 18011 kPa, x2 = 0.1347	803.75 ± 0.45
333.01 K, 18043 kPa, x2 = 0.6054	828.09 ± 0.45
333.01 K, 19014 kPa, x2 = 0.1347	804.55 ± 0.45
333.01 K, 19023 kPa, x2 = 0.6054	830 ± 0.45
333.01 K, 20028 kPa, x2 = 0.6054	831.92 ± 0.45
333.01 K, 20029 kPa, x2 = 0.1347	805.36 ± 0.45
333.01 K, 21007 kPa, x2 = 0.1347	806.13 ± 0.45
333.01 K, 21051 kPa, x2 = 0.6054	833.82 ± 0.45
333.01 K, 22021 kPa, x2 = 0.1347	806.92 ± 0.45
333.01 K, 22023 kPa, x2 = 0.6054	835.61 ± 0.45
333.01 K, 23026 kPa, x2 = 0.1347	807.74 ± 0.45
333.01 K, 23040 kPa, x2 = 0.6054	837.43 ± 0.46
333.01 K, 24005 kPa, x2 = 0.1347	808.5 ± 0.45
333.01 K, 24066 kPa, x2 = 0.6054	839.22 ± 0.46
333.01 K, 25039 kPa, x2 = 0.6054	840.93 ± 0.47
333.01 K, 25049 kPa, x2 = 0.1347	809.32 ± 0.45
342.76 K, 505 kPa, x2 = 0	776.31 ± 0.43
342.76 K, 997 kPa, x2 = 0	776.77 ± 0.43
342.76 K, 1995 kPa, x2 = 0	777.69 ± 0.43
342.76 K, 3011 kPa, x2 = 0	778.59 ± 0.43
342.76 K, 4012 kPa, x2 = 0	779.47 ± 0.43
342.76 K, 5011 kPa, x2 = 0	780.34 ± 0.44
342.76 K, 6011 kPa, x2 = 0	781.22 ± 0.44
342.76 K, 7003 kPa, x2 = 0	782.03 ± 0.44
342.76 K, 8015 kPa, x2 = 0	782.91 ± 0.44
342.76 K, 9000 kPa, x2 = 0	783.73 ± 0.44
342.76 K, 10019 kPa, x2 = 0	784.58 ± 0.44
342.76 K, 11020 kPa, x2 = 0	785.4 ± 0.44
342.76 K, 12002 kPa, x2 = 0	786.2 ± 0.44
342.76 K, 13016 kPa, x2 = 0	787.02 ± 0.44
342.76 K, 14024 kPa, x2 = 0	787.81 ± 0.44
342.76 K, 15002 kPa, x2 = 0	788.59 ± 0.44
342.76 K, 16007 kPa, x2 = 0	789.36 ± 0.44
342.76 K, 17037 kPa, x2 = 0	790.15 ± 0.44
342.76 K, 17988 kPa, x2 = 0	790.87 ± 0.45
342.76 K, 19037 kPa, x2 = 0	791.66 ± 0.45
342.76 K, 20003 kPa, x2 = 0	792.38 ± 0.45
342.76 K, 21015 kPa, x2 = 0	793.14 ± 0.45
342.76 K, 22019 kPa, x2 = 0	793.88 ± 0.45
342.76 K, 23039 kPa, x2 = 0	794.62 ± 0.45
342.76 K, 24027 kPa, x2 = 0	795.36 ± 0.45
342.76 K, 25028 kPa, x2 = 0	796.1 ± 0.45
342.84 K, 15024 kPa, x2 = 0.9757	576.16 ± 0.95
342.84 K, 16006 kPa, x2 = 0.9757	609.2 ± 0.88
342.84 K, 17033 kPa, x2 = 0.9757	637.26 ± 0.78
342.84 K, 18023 kPa, x2 = 0.9757	659.89 ± 0.73
342.84 K, 19028 kPa, x2 = 0.9757	679.62 ± 0.68
342.84 K, 20027 kPa, x2 = 0.9757	696.58 ± 0.64
342.84 K, 21039 kPa, x2 = 0.9757	711.98 ± 0.62
342.84 K, 22011 kPa, x2 = 0.9757	725.1 ± 0.6
342.84 K, 23016 kPa, x2 = 0.9757	737.54 ± 0.57
342.87 K, 8048 kPa, x2 = 0.3624	796.26 ± 0.44
342.87 K, 9023 kPa, x2 = 0.3624	797.49 ± 0.44
342.87 K, 10006 kPa, x2 = 0.4651	797.4 ± 0.44
342.87 K, 10022 kPa, x2 = 0.3624	798.77 ± 0.44
342.87 K, 11004 kPa, x2 = 0.3624	799.97 ± 0.44
342.87 K, 11022 kPa, x2 = 0.4651	799.24 ± 0.44
342.87 K, 11991 kPa, x2 = 0.4651	801.02 ± 0.44
342.87 K, 12013 kPa, x2 = 0.3624	801.19 ± 0.44
342.87 K, 13001 kPa, x2 = 0.4651	802.82 ± 0.44
342.87 K, 13035 kPa, x2 = 0.3624	802.37 ± 0.44
342.87 K, 13990 kPa, x2 = 0.3624	803.48 ± 0.44
342.87 K, 13990 kPa, x2 = 0.4651	804.53 ± 0.44
342.87 K, 14011 kPa, x2 = 0.7274	784.26 ± 0.57
342.87 K, 14992 kPa, x2 = 0.7274	789 ± 0.47
342.87 K, 15018 kPa, x2 = 0.3624	804.64 ± 0.44
342.87 K, 15036 kPa, x2 = 0.4651	806.31 ± 0.45
342.87 K, 16009 kPa, x2 = 0.3624	805.73 ± 0.44
342.87 K, 16014 kPa, x2 = 0.4651	807.95 ± 0.45
342.87 K, 16025 kPa, x2 = 0.7274	793.59 ± 0.47
342.87 K, 17000 kPa, x2 = 0.3624	806.82 ± 0.45
342.87 K, 17004 kPa, x2 = 0.4651	809.55 ± 0.45
342.87 K, 17006 kPa, x2 = 0.7274	797.68 ± 0.46
342.87 K, 18005 kPa, x2 = 0.7274	801.59 ± 0.46
342.87 K, 18017 kPa, x2 = 0.4651	811.18 ± 0.45
342.87 K, 18021 kPa, x2 = 0.3624	807.94 ± 0.45
342.87 K, 19019 kPa, x2 = 0.4651	812.75 ± 0.45
342.87 K, 19032 kPa, x2 = 0.7274	805.44 ± 0.46
342.87 K, 19036 kPa, x2 = 0.3624	809.03 ± 0.45
342.87 K, 19983 kPa, x2 = 0.7274	808.81 ± 0.46
342.87 K, 20012 kPa, x2 = 0.3624	810.06 ± 0.45
